Reference: ChEMBL document CHEMBL5236590, “Discovery of Novel N-(5-(Pyridin-3-yl)-1H-indazol-3-yl)benzamide Derivatives as Potent Cyclin-Dependent Kinase 7 Inhibitors for the Treatment of Autosomal Dominant Polycystic Kidney Disease” (J Med Chem, 2022)

Assays:
[1] = biological target: Tyrosine-protein kinase JAK2 (Homo sapiens) (UniProt O60674); assay: Inhibition of human partial length wild type JAK2 (A829/G1132) expressed in mammalian system at 1 uM by KINOMEscan analysis relative to control
[2] = biological target: Vascular endothelial growth factor receptor 2 (Homo sapiens) (UniProt P35968); assay: Inhibition of human partial length wild type KDR (R787/P1253) expressed in mammalian system at 1 uM by KINOMEscan analysis relative to control
Chain of Vascular endothelial growth factor receptor 2 (Homo sapiens) (P35968 whole entry): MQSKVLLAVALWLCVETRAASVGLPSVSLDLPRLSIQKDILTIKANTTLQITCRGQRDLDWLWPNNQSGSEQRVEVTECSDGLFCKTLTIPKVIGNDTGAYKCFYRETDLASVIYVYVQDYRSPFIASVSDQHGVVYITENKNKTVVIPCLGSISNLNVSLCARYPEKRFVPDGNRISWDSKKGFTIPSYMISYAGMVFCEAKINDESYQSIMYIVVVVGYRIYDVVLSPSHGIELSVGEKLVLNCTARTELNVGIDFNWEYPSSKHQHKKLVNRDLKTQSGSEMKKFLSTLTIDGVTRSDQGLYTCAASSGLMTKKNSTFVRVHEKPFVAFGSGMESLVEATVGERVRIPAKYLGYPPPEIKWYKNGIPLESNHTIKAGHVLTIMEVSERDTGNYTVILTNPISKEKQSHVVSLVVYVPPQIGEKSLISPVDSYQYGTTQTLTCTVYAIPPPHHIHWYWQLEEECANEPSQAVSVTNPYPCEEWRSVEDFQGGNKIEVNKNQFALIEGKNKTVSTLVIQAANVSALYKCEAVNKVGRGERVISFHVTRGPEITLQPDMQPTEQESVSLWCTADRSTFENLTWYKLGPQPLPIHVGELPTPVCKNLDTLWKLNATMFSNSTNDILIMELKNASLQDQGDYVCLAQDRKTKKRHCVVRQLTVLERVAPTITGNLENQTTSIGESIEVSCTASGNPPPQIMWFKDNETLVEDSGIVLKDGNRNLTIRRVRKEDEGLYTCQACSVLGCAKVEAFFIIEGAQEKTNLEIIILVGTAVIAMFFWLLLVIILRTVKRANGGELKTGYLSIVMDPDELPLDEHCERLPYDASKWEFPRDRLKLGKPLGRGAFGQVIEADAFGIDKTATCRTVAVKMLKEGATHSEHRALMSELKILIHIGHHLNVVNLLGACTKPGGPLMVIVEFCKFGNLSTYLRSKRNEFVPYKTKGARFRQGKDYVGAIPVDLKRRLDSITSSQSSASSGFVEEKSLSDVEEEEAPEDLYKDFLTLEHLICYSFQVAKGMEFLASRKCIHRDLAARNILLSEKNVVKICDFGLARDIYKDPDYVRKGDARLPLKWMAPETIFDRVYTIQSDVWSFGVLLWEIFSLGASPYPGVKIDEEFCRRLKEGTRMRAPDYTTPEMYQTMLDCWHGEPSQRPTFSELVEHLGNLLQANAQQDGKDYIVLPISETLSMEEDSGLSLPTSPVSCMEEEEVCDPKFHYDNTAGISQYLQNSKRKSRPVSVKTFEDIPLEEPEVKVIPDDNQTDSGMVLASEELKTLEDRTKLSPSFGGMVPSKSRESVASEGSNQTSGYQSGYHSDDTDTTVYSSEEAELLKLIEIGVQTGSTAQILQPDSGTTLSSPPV

[3] = biological target: RAF proto-oncogene serine/threonine-protein kinase (Homo sapiens) (UniProt P04049); assay: Inhibition of human partial length wild type c-RAF (I330/T640) expressed in bacterial system at 1 uM by KINOMEscan analysis relative to control
Chain of RAF proto-oncogene serine/threonine-protein kinase (Homo sapiens) (P04049 whole entry): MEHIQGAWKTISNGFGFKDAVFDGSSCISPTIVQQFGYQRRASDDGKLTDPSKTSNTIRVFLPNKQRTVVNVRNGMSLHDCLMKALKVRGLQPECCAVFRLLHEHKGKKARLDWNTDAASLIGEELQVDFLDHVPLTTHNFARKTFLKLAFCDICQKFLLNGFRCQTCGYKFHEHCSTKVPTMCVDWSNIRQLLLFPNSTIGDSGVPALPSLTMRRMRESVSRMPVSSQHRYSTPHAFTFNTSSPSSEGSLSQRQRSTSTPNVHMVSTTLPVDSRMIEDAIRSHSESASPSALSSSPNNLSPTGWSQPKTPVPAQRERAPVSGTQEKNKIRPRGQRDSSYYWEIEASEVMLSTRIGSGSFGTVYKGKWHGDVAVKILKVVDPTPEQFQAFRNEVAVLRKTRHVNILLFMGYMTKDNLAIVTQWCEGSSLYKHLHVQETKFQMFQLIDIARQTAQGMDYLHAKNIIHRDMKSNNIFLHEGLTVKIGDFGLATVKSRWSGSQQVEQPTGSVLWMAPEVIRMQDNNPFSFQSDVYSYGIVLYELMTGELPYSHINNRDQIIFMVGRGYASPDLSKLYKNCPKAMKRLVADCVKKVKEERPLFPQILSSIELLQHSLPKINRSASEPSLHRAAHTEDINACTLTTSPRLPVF

[4] = biological target: Tyrosine-protein kinase Fyn (Homo sapiens) (UniProt P06241); assay: Inhibition of human partial length wild type Fyn (T243/L534) expressed in bacterial system at 1 uM by KINOMEscan analysis relative to control
[5] = biological target: Serine/threonine-protein kinase 10 (Homo sapiens) (UniProt O94804); assay: Inhibition of human partial length wild type LOK (E16/V314) expressed in bacterial system at 1 uM by KINOMEscan analysis relative to control
Chain of Serine/threonine-protein kinase 10 (Homo sapiens) (O94804 whole entry, looked up): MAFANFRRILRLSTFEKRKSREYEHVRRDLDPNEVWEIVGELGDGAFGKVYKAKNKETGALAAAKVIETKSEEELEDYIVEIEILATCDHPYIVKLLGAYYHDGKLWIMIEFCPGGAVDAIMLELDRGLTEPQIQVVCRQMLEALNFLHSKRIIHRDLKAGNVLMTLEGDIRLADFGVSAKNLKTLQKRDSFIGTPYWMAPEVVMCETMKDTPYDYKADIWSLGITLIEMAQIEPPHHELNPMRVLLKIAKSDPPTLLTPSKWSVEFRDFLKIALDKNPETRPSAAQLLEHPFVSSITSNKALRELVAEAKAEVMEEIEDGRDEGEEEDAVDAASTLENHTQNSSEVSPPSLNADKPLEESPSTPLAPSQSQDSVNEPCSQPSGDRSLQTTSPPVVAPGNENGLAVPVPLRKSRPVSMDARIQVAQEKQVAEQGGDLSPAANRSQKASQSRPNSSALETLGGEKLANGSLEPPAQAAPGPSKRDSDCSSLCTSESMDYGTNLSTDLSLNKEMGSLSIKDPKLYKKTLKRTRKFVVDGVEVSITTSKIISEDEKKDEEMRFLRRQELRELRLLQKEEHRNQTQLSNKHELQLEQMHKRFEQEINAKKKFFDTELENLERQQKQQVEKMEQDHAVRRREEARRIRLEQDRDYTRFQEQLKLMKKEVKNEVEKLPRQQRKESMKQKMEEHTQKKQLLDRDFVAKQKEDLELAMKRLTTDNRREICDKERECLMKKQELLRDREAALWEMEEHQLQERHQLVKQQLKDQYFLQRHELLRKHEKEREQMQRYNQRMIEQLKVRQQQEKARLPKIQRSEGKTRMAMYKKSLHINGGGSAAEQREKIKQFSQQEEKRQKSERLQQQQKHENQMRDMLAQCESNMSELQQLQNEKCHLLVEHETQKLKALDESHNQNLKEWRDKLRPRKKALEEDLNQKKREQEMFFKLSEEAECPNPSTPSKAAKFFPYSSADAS

[6] = biological target: Platelet-derived growth factor receptor beta (Homo sapiens) (UniProt P09619); assay: Inhibition of human partial length wild type PDGFRbeta V582/Y1009 expressed in bacterial system at 1 uM by KINOMEscan analysis relative to control
Homo sapiens [7] = organism: Homo sapiens; assay: Inhibition of PIK3 (unknown origin) at 1 uM relative to control
[8] = biological target: Ribosomal protein S6 kinase alpha-1 (Homo sapiens) (UniProt Q15418); assay: Inhibition of human partial length wild type Rsk1 (M1/E388) expressed in bacterial system at 1 uM by KINOMEscan analysis relative to control
Chain of Ribosomal protein S6 kinase alpha-1 (Homo sapiens) (Q15418 whole entry): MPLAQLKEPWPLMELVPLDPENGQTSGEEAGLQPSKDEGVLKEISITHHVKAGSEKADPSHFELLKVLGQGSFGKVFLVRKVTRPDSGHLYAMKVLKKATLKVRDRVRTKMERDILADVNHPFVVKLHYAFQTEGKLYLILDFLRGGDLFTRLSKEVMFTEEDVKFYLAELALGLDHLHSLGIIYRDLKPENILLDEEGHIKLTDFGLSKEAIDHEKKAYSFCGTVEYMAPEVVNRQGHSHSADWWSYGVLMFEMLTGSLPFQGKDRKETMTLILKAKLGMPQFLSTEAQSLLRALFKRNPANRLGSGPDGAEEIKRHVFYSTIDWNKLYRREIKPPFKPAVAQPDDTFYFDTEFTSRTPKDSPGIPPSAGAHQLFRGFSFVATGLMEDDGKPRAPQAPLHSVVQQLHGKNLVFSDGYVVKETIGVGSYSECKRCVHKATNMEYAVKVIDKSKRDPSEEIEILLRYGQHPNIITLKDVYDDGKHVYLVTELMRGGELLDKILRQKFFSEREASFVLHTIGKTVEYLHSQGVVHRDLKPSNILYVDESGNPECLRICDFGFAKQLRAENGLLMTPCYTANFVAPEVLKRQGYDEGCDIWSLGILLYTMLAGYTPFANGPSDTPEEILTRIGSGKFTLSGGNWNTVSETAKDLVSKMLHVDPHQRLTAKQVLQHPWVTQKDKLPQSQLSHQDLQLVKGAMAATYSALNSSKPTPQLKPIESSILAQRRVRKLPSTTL

Homo sapiens [9] = organism: Homo sapiens; assay: Inhibition of P13 Kinase p120gamma (unknown origin) at 1 uM relative to control
[10] = Observed volume of distribution at steady state in ICR mouse at 5 mg/kg, iv single dose measured upto 24 hrs; assay type: ADME, organism-based; conditions: in vivo, read-out: Vdss
[11] = Efflux ratio of apparent permeability in human Caco-2 cells after 120 mins by LC-MS/MS analysis; assay type: ADME, cell-based
[12] = AUClast in ICR mouse at 5 mg/kg, sc single dose measured upto 24 hrs; assay type: ADME, organism-based; design: time < 24 hrs, dose 5 mg/kg, route sc; conditions: in vivo
THP-1 = assay: Cytotoxicity against human THP-1 cells assessed as cell viability measured after 24 hrs by CCK-8 assay; assay type: functional, cell-based; conditions: THP-1, 24 h
Mus musculus = organism: Mus musculus; assay: Suppression of cyst formation in C57BL/6 mouse embryonic kidney cyst model at 1 to 3 uM measured for 4 to 12 […]; assay type: functional, organism-based; conditions: dose 1-3 µM, time 4-12 hrs
[13] = Toxicity in wild type mouse assessed as body weight at 5 mg/kg; assay type: organism-based; conditions: in vivo

Chain of Tyrosine-protein kinase JAK2 (Homo sapiens) (O60674 whole entry): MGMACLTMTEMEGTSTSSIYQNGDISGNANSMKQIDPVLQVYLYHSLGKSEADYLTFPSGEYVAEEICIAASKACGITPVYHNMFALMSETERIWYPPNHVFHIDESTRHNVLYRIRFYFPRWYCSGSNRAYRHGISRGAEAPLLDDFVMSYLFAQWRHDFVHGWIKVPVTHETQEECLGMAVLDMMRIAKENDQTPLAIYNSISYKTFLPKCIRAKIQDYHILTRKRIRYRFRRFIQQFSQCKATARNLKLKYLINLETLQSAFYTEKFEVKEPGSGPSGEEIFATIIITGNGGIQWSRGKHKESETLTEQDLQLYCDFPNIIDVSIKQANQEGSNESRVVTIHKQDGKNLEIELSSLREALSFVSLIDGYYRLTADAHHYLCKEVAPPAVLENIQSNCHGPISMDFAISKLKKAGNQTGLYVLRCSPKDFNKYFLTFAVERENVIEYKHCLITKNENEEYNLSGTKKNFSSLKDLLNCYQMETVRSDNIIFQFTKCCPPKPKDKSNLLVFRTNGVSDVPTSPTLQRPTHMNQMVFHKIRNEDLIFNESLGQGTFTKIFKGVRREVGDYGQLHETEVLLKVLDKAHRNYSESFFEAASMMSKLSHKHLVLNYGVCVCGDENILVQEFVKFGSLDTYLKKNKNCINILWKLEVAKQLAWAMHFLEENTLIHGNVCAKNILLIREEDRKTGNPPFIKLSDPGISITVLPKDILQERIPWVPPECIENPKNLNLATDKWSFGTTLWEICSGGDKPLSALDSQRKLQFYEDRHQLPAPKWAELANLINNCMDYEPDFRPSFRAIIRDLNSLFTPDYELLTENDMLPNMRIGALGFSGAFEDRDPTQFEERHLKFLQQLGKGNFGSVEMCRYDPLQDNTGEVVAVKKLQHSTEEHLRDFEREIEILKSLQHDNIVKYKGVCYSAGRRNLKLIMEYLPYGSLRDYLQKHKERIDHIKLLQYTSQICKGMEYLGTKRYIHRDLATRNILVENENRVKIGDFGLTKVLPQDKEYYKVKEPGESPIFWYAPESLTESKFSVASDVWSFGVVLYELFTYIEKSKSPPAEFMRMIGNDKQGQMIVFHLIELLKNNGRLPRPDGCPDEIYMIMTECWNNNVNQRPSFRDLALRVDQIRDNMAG

## C=CC(=O)Nc1ccc(C(=O)Nc2n[nH]c3ccc(-c4cncc(NC[C@@H](O)c5ccccc5)c4)cc23)cc1
[1]
  inhibition: 62%
[2]
  inhibition: 63%
[3]
  inhibition: < 50%
[4]
  inhibition: < 50%
[5]
  inhibition: < 50%
[6]
  inhibition: < 50%
Homo sapiens [7]
  inhibition: < 50%
[8]
  inhibition: < 50%
Homo sapiens [9]
  inhibition: < 50%
[10]
  Vd: 1.28 L/kg
[11]
  efflux ratio at 2 h: > 48
[12]
  AUC(0-t) at 24 h: 17300 ng·h/mL
THP-1
  IC50: 13 µM
Mus musculus
  inhibition: Dose-Dependent Effect
[13]
  Activity: Non-Toxic
